Columns and labels:
Assay type in all cases: in vivo
[1] = tested on: Echinochloa crus-galli (L.) P. Beauv. var. formosensis Ohwi; assay: Test for Herbicidal Effect in Flooding Treatment (#2), ECHDG at 2-2.5 leaf stage; conditions: for ECHDG (2-2.5L) #2 herbicidal effect (growth inhibition grade): flooding treatment at 2-2.5 leaf stage, dose 0.2 kg/ha, visual observation on day 21
Method in brief: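 Scoring is a visual 0–5 scale of growth inhibition (0 below 10%, 5 at 90% or more or full withering), taken 21 days after treatment in a glasshouse. Dose was 0.2 kg/ha, applied as acetone/Tween 80 aqueous solution onto flooded soil once seedlings reached the 2–2.5 leaf stage.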

[2] = tested on: Cyperus microiria; assay: Test for Herbicidal Effect in Flooding Treatment (#1), CYMIC; conditions: flooding treatment at seeding, dose 2 kg/ha, visual observation on day 21
Experimental: (#1) Test for Herbicidal Effect in Flooding Treatment: Styrol cups each having an opening diameter of 8 cm (about 52 cm^2) were respectively filled with soil (45 ml) which had been passed through a sieve (2 mm). Water (about 115 ml) was mixed with the soil such that the soil was flooded. After the soil stood still for 24 hours, Monochoria vaginalis, Echinochloa crus-galli (L.) P. Beauv. var. formosensis Ohwi, Cyperus difformis (umbrella sedge), and Scirpus juncoides were seeded. Each of the compounds of the present invention was dissolved in acetone, and the obtained product was then diluted with water containing Tween 80®. Each of the resultant chemical solutions was dropped on the entire surface of an associated one of treatment sections, so that each section was treated with 1 ml of the respective chemical solution (a dose of 2 kg/ha). After the treatment, the plants were grown in a glasshouse. On day 21, a survey was conducted on the herbicidal activity by visual observation, and evaluation was made according to the following criteria. 0: Growth inhibition effect is less than 10%. 1: Growth inhibition effect is equal to or greater than 10%, and less than 30%. 2; Growth inhibition effect is equal to or greater than 30%, and less than 50%. 3: Growth inhibition effect equal to or greater than 50%, and less than 70%. 4: Growth inhibition effect is equal to or greater than 70%, and less than 90%. 5: Growth inhibition effect is equal to or greater than 90%, or complete withering is achieved. ECHDG=Echinochloa crus-galli (L.) P. Beauv. var. formosensis Ohwi, MONVA=Monochoria vaginalis, SCIJU=Scirpus juncoides, CYMIC=Cyperus microiria.

[3] = tested on: Echinochloa crus-galli (L.) P. Beauv. var. formosensis Ohwi; assay: Test for Herbicidal Effect in Flooding Treatment (#1), ECHDG; conditions: flooding treatment at seeding, dose 2 kg/ha, visual observation on day 21
Method in brief: (§1)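 Visual scores from 0 (<10% inhibition) to 5 (≥90% or complete withering) were taken 21 days after treatment of glasshouse-grown plants. Seeds were sown in soil flooded for 24 h beforehand, and compound was applied dropwise onto the surface at 2 kg/ha as an acetone solution diluted in water with Tween 80.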

[4] = tested on: Scirpus juncoides; assay: Test for Herbicidal Effect in Flooding Treatment (#1), SCIJU; conditions: flooding treatment at seeding, dose 2 kg/ha, visual observation on day 21
Method in brief: as §1

COc1cccc(CS(=O)(=O)c2ncc(Cl)s2)c1C [Compound 1C-67]
ECHDG (2-2.5L) #2 herbicidal effect (growth inhibition grade) [1]: 5 (Growth inhibition effect is equal to or greater than 90%, or complete withering is achieved)
CYMIC #1 herbicidal effect (growth inhibition grade) [2]: 5 (Growth inhibition effect is equal to or greater than 90%, or complete withering is achieved)
ECHDG #1 herbicidal effect (growth inhibition grade) [3]: 5 (Growth inhibition effect is equal to or greater than 90%, or complete withering is achieved)
SCIJU #1 herbicidal effect (growth inhibition grade) [4]: 5 (Growth inhibition effect is equal to or greater than 90%, or complete withering is achieved)

COc1cc(F)ccc1CS(=O)(=O)c1ncc(Cl)s1 [Compound 1C-3]
ECHDG (2-2.5L) #2 herbicidal effect (growth inhibition grade) [1]: 4 (Growth inhibition effect is equal to or greater than 70%, and less than 90%)
CYMIC #1 herbicidal effect (growth inhibition grade) [2]: 5 (Growth inhibition effect is equal to or greater than 90%, or complete withering is achieved)
ECHDG #1 herbicidal effect (growth inhibition grade) [3]: 5 (Growth inhibition effect is equal to or greater than 90%, or complete withering is achieved)
SCIJU #1 herbicidal effect (growth inhibition grade) [4]: 5 (Growth inhibition effect is equal to or greater than 90%, or complete withering is achieved)

CCOc1c(Br)cc(Cl)cc1CS(=O)(=O)c1ncc(Cl)s1 [Compound 1C-24]
ECHDG (2-2.5L) #2 herbicidal effect (growth inhibition grade) [1]: 5 (Growth inhibition effect is equal to or greater than 90%, or complete withering is achieved)
CYMIC #1 herbicidal effect (growth inhibition grade) [2]: 5 (Growth inhibition effect is equal to or greater than 90%, or complete withering is achieved)
ECHDG #1 herbicidal effect (growth inhibition grade) [3]: 5 (Growth inhibition effect is equal to or greater than 90%, or complete withering is achieved)
SCIJU #1 herbicidal effect (growth inhibition grade) [4]: 5 (Growth inhibition effect is equal to or greater than 90%, or complete withering is achieved)

CCOc1ccc(Cl)cc1CS(=O)(=O)c1ncc(Cl)s1 [Compound 1C-16]
inhibition at 200 g/ha ([1]; Echinochloa crus-galli, 504 h, flooding treatment (#2), ECHDG at 2-2.5 leaf stage, dose of 0.2 kg/ha, day 21, visual observation, read-out: growth inhibition effect): ≥ 90%
ECHDG (2-2.5L) #2 herbicidal effect (growth inhibition grade) [1]: 5 (Growth inhibition effect is equal to or greater than 90%, or complete withering is achieved)
CYMIC #1 herbicidal effect (growth inhibition grade) [2]: 5 (Growth inhibition effect is equal to or greater than 90%, or complete withering is achieved)
ECHDG #1 herbicidal effect (growth inhibition grade) [3]: 5 (Growth inhibition effect is equal to or greater than 90%, or complete withering is achieved)
SCIJU #1 herbicidal effect (growth inhibition grade) [4]: 5 (Growth inhibition effect is equal to or greater than 90%, or complete withering is achieved)

CCOc1cc(Cl)c(CS(=O)(=O)c2ncc(Cl)s2)cc1Cl [Compound 1C-102]
ECHDG (2-2.5L) #2 herbicidal effect (growth inhibition grade) [1]: 4 (Growth inhibition effect is equal to or greater than 70%, and less than 90%)
CYMIC #1 herbicidal effect (growth inhibition grade) [2]: 5 (Growth inhibition effect is equal to or greater than 90%, or complete withering is achieved)
ECHDG #1 herbicidal effect (growth inhibition grade) [3]: 5 (Growth inhibition effect is equal to or greater than 90%, or complete withering is achieved)
SCIJU #1 herbicidal effect (growth inhibition grade) [4]: 5 (Growth inhibition effect is equal to or greater than 90%, or complete withering is achieved)

COc1ccc(Cl)c(CS(=O)(=O)c2ncc(Cl)s2)c1F [Compound 1C-71]
ECHDG (2-2.5L) #2 herbicidal effect (growth inhibition grade) [1]: 5 (Growth inhibition effect is equal to or greater than 90%, or complete withering is achieved)
CYMIC #1 herbicidal effect (growth inhibition grade) [2]: 5 (Growth inhibition effect is equal to or greater than 90%, or complete withering is achieved)
ECHDG #1 herbicidal effect (growth inhibition grade) [3]: 5 (Growth inhibition effect is equal to or greater than 90%, or complete withering is achieved)
SCIJU #1 herbicidal effect (growth inhibition grade) [4]: 5 (Growth inhibition effect is equal to or greater than 90%, or complete withering is achieved)

O=S(=O)(Cc1cccc(OC(F)(F)F)c1)c1ncc(Cl)s1 [Compound 1C-85, 5-chloro-2-{[3-(trifluoromethoxy)phenyl][methanesulfonyl]}-1,3-thiazole]
ECHDG (2-2.5L) #2 herbicidal effect (growth inhibition grade) [1]: 1 (Growth inhibition effect is equal to or greater than 10%, and less than 30%)
CYMIC #1 herbicidal effect (growth inhibition grade) [2]: 5 (Growth inhibition effect is equal to or greater than 90%, or complete withering is achieved)
ECHDG #1 herbicidal effect (growth inhibition grade) [3]: 5 (Growth inhibition effect is equal to or greater than 90%, or complete withering is achieved)
SCIJU #1 herbicidal effect (growth inhibition grade) [4]: 5 (Growth inhibition effect is equal to or greater than 90%, or complete withering is achieved)

N#Cc1cccc(CS(=O)(=O)c2ncc(Cl)s2)c1 [Compound 1C-171]
ECHDG (2-2.5L) #2 herbicidal effect (growth inhibition grade) [1]: 3 (Growth inhibition effect equal to or greater than 50%, and less than 70%)
CYMIC #1 herbicidal effect (growth inhibition grade) [2]: 5 (Growth inhibition effect is equal to or greater than 90%, or complete withering is achieved)
ECHDG #1 herbicidal effect (growth inhibition grade) [3]: 5 (Growth inhibition effect is equal to or greater than 90%, or complete withering is achieved)
SCIJU #1 herbicidal effect (growth inhibition grade) [4]: 5 (Growth inhibition effect is equal to or greater than 90%, or complete withering is achieved)

CCOc1ccc(CS(=O)(=O)c2ncc(Cl)s2)c(Cl)c1 [Compound 1C-92]
ECHDG (2-2.5L) #2 herbicidal effect (growth inhibition grade) [1]: 5 (Growth inhibition effect is equal to or greater than 90%, or complete withering is achieved)
CYMIC #1 herbicidal effect (growth inhibition grade) [2]: 5 (Growth inhibition effect is equal to or greater than 90%, or complete withering is achieved)
ECHDG #1 herbicidal effect (growth inhibition grade) [3]: 5 (Growth inhibition effect is equal to or greater than 90%, or complete withering is achieved)
SCIJU #1 herbicidal effect (growth inhibition grade) [4]: 5 (Growth inhibition effect is equal to or greater than 90%, or complete withering is achieved)

O=S(=O)(Cc1ccc(OC(F)(F)F)cc1)c1ncc(Cl)s1 [Compound 1C-115]
ECHDG (2-2.5L) #2 herbicidal effect (growth inhibition grade) [1]: 1 (Growth inhibition effect is equal to or greater than 10%, and less than 30%)
CYMIC #1 herbicidal effect (growth inhibition grade) [2]: 5 (Growth inhibition effect is equal to or greater than 90%, or complete withering is achieved)
ECHDG #1 herbicidal effect (growth inhibition grade) [3]: 5 (Growth inhibition effect is equal to or greater than 90%, or complete withering is achieved)
SCIJU #1 herbicidal effect (growth inhibition grade) [4]: 5 (Growth inhibition effect is equal to or greater than 90%, or complete withering is achieved)

CCOc1cc(C(F)(F)F)ccc1CS(=O)(=O)c1ncc(Cl)s1 [Compound 1C-14]
ECHDG (2-2.5L) #2 herbicidal effect (growth inhibition grade) [1]: 4 (Growth inhibition effect is equal to or greater than 70%, and less than 90%)
CYMIC #1 herbicidal effect (growth inhibition grade) [2]: 5 (Growth inhibition effect is equal to or greater than 90%, or complete withering is achieved)
ECHDG #1 herbicidal effect (growth inhibition grade) [3]: 5 (Growth inhibition effect is equal to or greater than 90%, or complete withering is achieved)
SCIJU #1 herbicidal effect (growth inhibition grade) [4]: 5 (Growth inhibition effect is equal to or greater than 90%, or complete withering is achieved)

COc1ccc(OC)c(CS(=O)(=O)c2ncc(Cl)s2)c1 [Compound 1C-126]
ECHDG (2-2.5L) #2 herbicidal effect (growth inhibition grade) [1]: 3 (Growth inhibition effect equal to or greater than 50%, and less than 70%)
CYMIC #1 herbicidal effect (growth inhibition grade) [2]: 5 (Growth inhibition effect is equal to or greater than 90%, or complete withering is achieved)
ECHDG #1 herbicidal effect (growth inhibition grade) [3]: 5 (Growth inhibition effect is equal to or greater than 90%, or complete withering is achieved)
SCIJU #1 herbicidal effect (growth inhibition grade) [4]: 5 (Growth inhibition effect is equal to or greater than 90%, or complete withering is achieved)

COc1ccc(CS(=O)(=O)c2ncc(Cl)s2)cc1 [Compound 1C-87]
ECHDG (2-2.5L) #2 herbicidal effect (growth inhibition grade) [1]: 1 (Growth inhibition effect is equal to or greater than 10%, and less than 30%)
CYMIC #1 herbicidal effect (growth inhibition grade) [2]: 5 (Growth inhibition effect is equal to or greater than 90%, or complete withering is achieved)
ECHDG #1 herbicidal effect (growth inhibition grade) [3]: 5 (Growth inhibition effect is equal to or greater than 90%, or complete withering is achieved)
SCIJU #1 herbicidal effect (growth inhibition grade) [4]: 5 (Growth inhibition effect is equal to or greater than 90%, or complete withering is achieved)

N#Cc1ccc(CS(=O)(=O)c2ncc(Cl)s2)cc1 [Compound 1C-172]
ECHDG (2-2.5L) #2 herbicidal effect (growth inhibition grade) [1]: 2 (Growth inhibition effect is equal to or greater than 30%, and less than 50%)
CYMIC #1 herbicidal effect (growth inhibition grade) [2]: 5 (Growth inhibition effect is equal to or greater than 90%, or complete withering is achieved)
ECHDG #1 herbicidal effect (growth inhibition grade) [3]: 5 (Growth inhibition effect is equal to or greater than 90%, or complete withering is achieved)
SCIJU #1 herbicidal effect (growth inhibition grade) [4]: 5 (Growth inhibition effect is equal to or greater than 90%, or complete withering is achieved)

— patent US20200060276A1, “THIAZOLE COMPOUND AND HERBICIDE” (OAT Agrio Co., Ltd., priority 2017, published 2020)
